In brackets after ≈: the same amount, converted by molar mass.
Columns and labels:
SK-MEL-2 (melanoma) [1] = system: SK-MEL-2 (melanoma)
A-375 (melanoma) = assay: MTS cell viability assay, A-375; type: cell-based; conditions: Homo sapiens, 72 h
Description: (§1) All treatments were performed in triplicate. […] Cells were incubated at 37° C. for 72 h.

MCF-7 (breast carcinoma) = assay: MTS cell viability assay, MCF-7; type: cell-based; conditions: Homo sapiens, MCF7, 72 h
Description: as §1

SK-MEL-2 = assay: Annexin-V assay (apoptosis versus necrosis); type: cell-based; conditions: for selective apoptosis and dose dependence (in words): cell line not stated, above optimal dose cellular damage and non-apoptotic cell death
Description: Cells were plated (8.75×10^5 cells/6 cm. diameter tissue culture plates), the evening before treatment, in 4 mL volume per plate. This cell density is equivalent to the cell density used in the MTS and Caspase assays (1×10^4 cells/well (96-well plate). Drug solutions were prepared, immediately prior to cell treatment, in the same as described for caspase assay
Growth media alone (no DMSO or drug) was added to a plate containing cells to measure the baseline-Annexin-V reactivity and vehicle (DMSO) alone control solutions were also prepared to monitor Annexin-V reactivity from DMSO. Cells were incubated at 37° C. for 8 h. Growth media (3 mL) was removed from each plate and added to a 15 mL conical tube containing 0.333 mL FCS (final FCS concentration of 10%). The media was saved to include any apoptotic/dead cells that may have detached from the plate during drug treatment. FCS was added to the media to prevent further cell damage and improve the efficiency of cell pelleting during subsequent centrifugation steps (empirical observation). Adherent cells were rinsed once with PBS and 1 mL of trypsin was added. Plates were rotated several times to assure coating of the entire surface with trypsin which was then removed. Plates were incubated at 37° C. for 4-5 min. Trypsinized cells were re-suspended in the saved media for each sample. Cell suspension was placed back into 15 mL tubes, which were then cooled on ice. Cells were re-suspended by pipetting 7-8 times. The tubes were centrifuged at 130×g for 5 min at 4° C. The resulting cell pellets were re-suspended in the ice cold 1 mL of 1× Nexin Buffer (Guava Nexin kit, Guava Technologies) and transferred to 1.5 mL conical microcentrifuge tubes to rinse cells with residual growth media. This procedure was repeated by centrifugation of cells at 130×g for 5 min, at 4° C. Re-suspension of the resulting cell pellet in 50 μL Nexin Staining Solution (Guava Nexin kit, Guava Technologies) was followed by incubation on ice, in the dark, for 20 min. Guava Samples were analyzed immediately on the Guava flow cytometer, using the Guava Nexin software package (see Guava user's manual and Guava Nexin kit protocol on data acquisition and analysis protocols).

[2] = system: SK-MEL-2, A-375, Daoy, LN-229, OVCAR-3, HT-29, MCF-7 cell lines; type: cell-based
Description: as §1

[3] = system: OVCAR-3 (ovarian carcinoma); assay: MTS cell viability assay, OVCAR-3; type: cell-based; conditions: Homo sapiens, 72 h
Description: as §1

Daoy (glioblastoma) [4] = assay: MTS cell viability assay, Daoy; conditions: Homo sapiens, Daoy, 72 h, read-out: IC50 Daoy
HT-29 (colon carcinoma) = assay: MTS cell viability assay, HT-29; type: cell-based; conditions: Homo sapiens, 72 h
Description: as §1

LN-229 (glioblastoma) = assay: MTS cell viability assay, LN-229; type: cell-based; conditions: Homo sapiens, 72 h
Description: as §1

SK-MEL-2 (melanoma) [5] = assay: MTS cell viability assay, SK-MEL-2; conditions: Homo sapiens, SK-MEL-2, 72 h, read-out: IC50 SK-MEL-2
SK-MEL-2 cells = assay: Caspase activation assay, SK-MEL-2; type: cell-based; conditions: for caspase activating property compared with betulinic acid (1): SK-MEL-2, 5, 15, 50 μM, 2-24 h, absence of FBS
Description: All treatments were performed in duplicate. […] Cells were incubated at 37° C. for 8 h. Caspase assay reagent (per 96-well plate) was prepared according to manufacturer's instructions (Homogeneous Caspases Assay, fluorometric, Roche) by combining 6.3 mL Incubation Buffer with 0.7 mL of Substrate Stock Solution. Caspase assay reagent (70 μL) was added to each well; the plate was gently shaken by hand for 15-20 seconds and incubated at 37° C. for 4 h.
Fluorescent emission was measured at 535 nm on a plate reader using the “homogeneous caspase” program (excitation Wavelength=490 nm, emission wavelength=535 nm). Duplicate wells for each treatment were averaged following background (no cells) subtraction (emission 535 nm value from all experimental emission 535 nm values) for each drug concentration.
DMSO treatment represented baseline caspase activation in the absence of drug. The percent changes in caspase activity were plotted on the y-axis for each drug treatment.
Caspase activation assays were conducted to further characterize the mode of cell death. A treatment time and dose at which maximum caspase activation was observed prior to massive cell destruction would be indicative of apoptosis induction. SK-MEL-2 cells were treated with 5, 15, and 50 μM of the compound for 2, 4, 6, 8, 16, and 24 h in the absence of FBS (Fetal Bovine Serum).

Daoy (glioblastoma) [6] = system: Daoy (glioblastoma)

C=C(C)[C@@H]1CC[C@]2(C(=O)O)CC[C@]3(C)[C@H](CC[C@@H]4[C@@]5(C)CC[C@H](OC(=O)/C=C/c6ccc(OC(C)=O)c(OC(C)=O)c6)C(C)(C)[C@@H]5CC[C@]43C)[C@@H]12 [Compound 24, (1R,3aS,5aR,5bR,7aR,9S,11aR,11bR,13aR, 13bR)-9-((E)-3-(3,4-diacetoxyphenyl)acryloyloxy)-5a,5b,8,8,11a-pentamethyl-1-(prop-1-en-2-yl)icosahydro-1H-cyclopenta[a]chrysene-3a-carboxylic acid]
improvement in cytotoxicity relative to betulinic acid 1 in SK-MEL-2 (SK-MEL-2 (melanoma) [1]): greater than 5 fold

C=C(C)[C@@H]1CC[C@]2(C(=O)O)CC[C@]3(C)[C@H](CC[C@@H]4[C@@]5(C)CC[C@H](OC(=O)/C=C/c6ccc(O)c(O)c6)C(C)(C)[C@@H]5CC[C@]43C)[C@@H]12 [Compound 25, (1R,3aS,5aR,5bR,7aR,9S,11aR,11bR,13aR, 13bR)-9-((E)-3-(3,4-dihydroxyphenyl)acryloyloxy)-5a,5b,8,8,11a-pentamethyl-1-(prop-1-en-2-yl)icosahydro-1H-cyclopenta[a]chrysene-3a-carboxylic acid]
improvement in cytotoxicity relative to betulinic acid 1 in SK-MEL-2 (SK-MEL-2 (melanoma) [1]): greater than 5 fold

C=C(C)[C@@H]1CC[C@]2(COC3CCCCO3)CC[C@]3(C)[C@H](CC[C@@H]4[C@@]5(C)CC6=C(ON(O)C6)C(C)(C)[C@@H]5CC[C@]43C)[C@@H]12 (stereo partly drawn) [Compound 32, (1R,3aS,5aR,5bR,7aR,12aR,12bR,14aR,14bR)-1-isopropenyl-5a,5b,8,8,12a-pentamethyl-3a-[(tetrahydro-2H-pyran-2-yloxy)methyl]-1,2,3,3a,4,5,5a,5b,6,7,7a,8,11,12,12a,12b,13,14, 14a,14b-icosahydro-10H-cyclopenta[7,8]chryseno[3,2-d]isoxazol-10-ol]
IC50 (A-375 (melanoma)): 6 µg/mL (≈ 10.6 µM)
IC50 (MCF-7 (breast carcinoma)): 6 µg/mL (≈ 10.6 µM)
selective apoptosis and dose dependence (in words) (SK-MEL-2): induced selective apoptosis at an optimal dose
cytotoxic potency across the cell line panel (in words) [2]: potent across the entire cell line panel
IC50 [3]: 6 µg/mL (≈ 10.6 µM)
IC50 (Daoy (glioblastoma) [4]): 6 µg/mL (≈ 10.6 µM)
IC50 (HT-29 (colon carcinoma)): 8 µg/mL (≈ 14.1 µM)
IC50 (LN-229 (glioblastoma)): 6 µg/mL (≈ 10.6 µM)
IC50 (SK-MEL-2 (melanoma) [5]): 5 µg/mL (≈ 8.81 µM)
caspase activating property compared with betulinic acid (1) (SK-MEL-2 cells): more robust caspase activating property than betulinic acid

C=C(C)[C@@H]1CC[C@]2(CO)CC[C@]3(C)[C@H](CC[C@@H]4[C@@]5(C)C=C(C#N)C(=O)C(C)(C)[C@@H]5CC[C@]43C)[C@@H]12 [Compound 38, (1R,3aS,5aR,5bR,7aR,11aR,11bR,13aR,13bR)-3a-(hydroxymethyl)-5a,5b,8,8,11a-pentamethyl-9-oxo-1-(prop-1-en-2-yl)-2,3,3a,4,5,5a,5b,6,7,7a, 8,9,11a,11b,12,13,13a,13b-octadecahydro-1H-cyclopenta[a]chrysene-10-carbonitrile]
IC50 (A-375 (melanoma)): 6 µg/mL (≈ 12.9 µM)
apoptosis versus necrosis by the Annexin assay (in words) (SK-MEL-2; SK-MEL-2): inducing apoptosis over necrosis robustly
rank as apoptosis inducer within the collection (in words) (SK-MEL-2; caspase and Annexin assays, SK-MEL-2): most potent apoptosis inducer
cytotoxic potency across the cell line panel (in words) [2]: potent across the entire cell line panel
IC50 [3]: 7 µg/mL (≈ 15.1 µM)
IC50 (Daoy (glioblastoma) [4]): 8 µg/mL (≈ 17.3 µM)
IC50 (HT-29 (colon carcinoma)): 8 µg/mL (≈ 17.3 µM)
IC50 (LN-229 (glioblastoma)): 6 µg/mL (≈ 12.9 µM)
IC50 (SK-MEL-2 (melanoma) [5]): 6 µg/mL (≈ 12.9 µM)
caspase activation in SK-MEL-2 (in words) (SK-MEL-2 cells; SK-MEL-2): activated caspases
caspase activating property compared with betulinic acid (1) (SK-MEL-2 cells): more robust caspase activating property than betulinic acid

C=C(C)[C@@H]1CC[C@]2(CNCC(=O)OC)CC[C@]3(C)[C@H](CC[C@@H]4[C@@]5(C)CC[C@H](OC(C)=O)C(C)(C)[C@@H]5CC[C@]43C)[C@@H]12 [Compound 72, methyl 2-(((1R,3aS,5aR,5bR,7aR,9S,1iaR,11bR,13aR,13bR)-9-acetoxy-5a,5b,8,8,11a-pentamethyl-1-(prop-1-en-2-yl)icosahydro-1H-cyclopenta[a]chrysen-3a-yl)methylamino)acetate]
improvement in cytotoxicity relative to betulinic acid 1 in SK-MEL-2 (SK-MEL-2 (melanoma) [1]): greater than 5 fold
IC50 (A-375 (melanoma)): 6 µg/mL (≈ 10.8 µM)
IC50 (MCF-7 (breast carcinoma)): 75 µg/mL (≈ 135 µM)
IC50 [3]: 36 µg/mL (≈ 64.8 µM)
improvement in cytotoxicity relative to betulinic acid 1 in Daoy (Daoy (glioblastoma) [6]): greater than 5 fold
IC50 (Daoy (glioblastoma) [4]): 6 µg/mL (≈ 10.8 µM)
IC50 (HT-29 (colon carcinoma)): > 75 µg/mL
IC50 (LN-229 (glioblastoma)): > 75 µg/mL
IC50 (SK-MEL-2 (melanoma) [5]): 6 µg/mL (≈ 10.8 µM)

C=C(C)[C@@H]1CC[C@]2(CO)CC[C@]3(C)[C@H](CC[C@@H]4[C@@]5(C)CCC(NCCc6ccc(O)cc6)C(C)(C)[C@@H]5CC[C@]43C)[C@@H]12 (stereo partly drawn) [Compound 75, 4-(2-((1R,3aS,5aR,5bR,7aR,11aR,11bR,13aR,13bR)-3a-(hydroxymethyl)-5a,5b,8,8,11a-pentamethyl-1-(prop-1-en-2-yl)icosahydro-1H-cyclopenta[a]chrysen-9-ylamino)ethyl)phenol]
selective apoptosis and dose dependence (in words) (SK-MEL-2): induced selective apoptosis at an optimal dose
caspase activating property compared with betulinic acid (1) (SK-MEL-2 cells): more robust caspase activating property than betulinic acid

C=C(C)[C@@H]1CC[C@]2(C(=O)O)CC[C@]3(C)[C@H](CC[C@@H]4[C@@]5(C)CCC(NCCNC(=O)OC(C)(C)C)C(C)(C)[C@@H]5CC[C@]43C)[C@@H]12 (stereo partly drawn) [Compound 79, (1R,3aS,5aR,5bR,7aR,11aR,11bR,13aR,13bR)-9-(2-(tert-butoxycarbonylamino)ethylamino)-5a,5b,8,8,11a-pentamethyl-1-(prop-1-en-2-yl)icosahydro-1H-cyclopenta[a]chrysene-3a-carboxylic acid]
selective apoptosis and dose dependence (in words) (SK-MEL-2): induced selective apoptosis at an optimal dose

C=C(C)[C@@H]1CC[C@]2(C(=O)O)CC[C@]3(C)[C@H](CC[C@@H]4[C@@]5(C)CC[C@H](NCCc6ccc(O)cc6)C(C)(C)[C@@H]5CC[C@]43C)[C@@H]12 [Compound 82, (1R,3aS,5aR,5bR,7aR,9S,11aR,11bR,13aR,13bR)-9-(4-hydroxyphenethylamino)-5a,5b,8,8,11a-pentamethyl-1-(prop-1-en-2-yl)icosahydro-1H-cyclopenta[a]chrysene-3a-carboxylic acid]
IC50 (A-375 (melanoma)): 5 µg/mL (≈ 8.68 µM)
IC50 (MCF-7 (breast carcinoma)): 6 µg/mL (≈ 10.4 µM)
cytotoxic potency across the cell line panel (in words) [2]: potent across the entire cell line panel
IC50 [3]: 6 µg/mL (≈ 10.4 µM)
IC50 (Daoy (glioblastoma) [4]): 5 µg/mL (≈ 8.68 µM)
IC50 (HT-29 (colon carcinoma)): 4 µg/mL (≈ 6.95 µM)
IC50 (LN-229 (glioblastoma)): 5 µg/mL (≈ 8.68 µM)
IC50 (SK-MEL-2 (melanoma) [5]): 5 µg/mL (≈ 8.68 µM)

CC(C)[C@@H]1CC[C@]2(C(=O)O)CC[C@]3(C)[C@H](CC[C@@H]4[C@@]5(C)CC[C@H](N)C(C)(C)[C@@H]5CC[C@]43C)[C@@H]12 [Compound 86, (1S,3aS,5aR,5bR,7aR,9S,11aR,11bR,13aR,13bR)-9-amino-1-isopropyl-5a,5b,8,8,11a-pentamethylicosahydro-1H-cyclopenta[a]chrysene-3a-carboxylic acid]
IC50 (A-375 (melanoma)): 5 µg/mL (≈ 10.9 µM)
IC50 (MCF-7 (breast carcinoma)): 6 µg/mL (≈ 13.1 µM)
cytotoxic potency across the cell line panel (in words) [2]: potent across the entire cell line panel
IC50 [3]: 6 µg/mL (≈ 13.1 µM)
IC50 (Daoy (glioblastoma) [4]): 6 µg/mL (≈ 13.1 µM)
IC50 (HT-29 (colon carcinoma)): 5 µg/mL (≈ 10.9 µM)
IC50 (LN-229 (glioblastoma)): 5 µg/mL (≈ 10.9 µM)
IC50 (SK-MEL-2 (melanoma) [5]): 6 µg/mL (≈ 13.1 µM)

— US20070232577A1, “Synthetic pentacyclic triterpenoids and derivatives of betulinic acid and betulin” (Advanced Life Sciences, Inc., priority 2006, published 2007)
